Calls of active or inactive are those of the source.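 How the source made its calls: active means EC50 under a set limit in control cells lacking the mosquito receptor, marking a fluorescence artifact; inactive means the rest.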

This test addresses HEK293 Galpha15/GCaMP6s without NPYLR7, calcium fluorescence. As to the kind of experiment: calcium response in NPYLR7-null HEK293 cells, dose response, counter-screen for mosquito NPYLR7 agonist project, cell-based, HEK293 lacking NPYLR7 (AID 1259426;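 further: potency for a rise in fluorescence over baseline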). (In general: The purpose of a counterscreen is to sort out artefacts and off-target activity.)
In general, EC50 refers to the concentration needed to bring the measured effect to its halfway point. Take `CC(=NNc1ncnc2sc(C)c(C)c12)c1ccccn1`: the EC50 result was “inactive”.

In the case of `O=C(C1=NN(c2ccccc2)C2C(=O)N(c3ccccc3)C(=O)C12)c1ccccc1` (configuration not stated), the EC50 is > 20 µM (inactive).

As to `COc1cc(OC)c(C2=NOC3(CC(=O)N(c4cccc(Cl)c4)C3=O)C2)cc1OC` (configuration not stated), the EC50 is > 20 µM (inactive).

In the case of `N#CC1C(=N)SC(=N)C(C#N)C1c1ccccc1F` (configuration not stated), the EC50 is 10.2 µM.

On to `CCN(CC)C1=CC2=CC(=C(C#N)C#N)CCC2CC1` (configuration not stated), for which the EC50 is under 0.039 µM.

As for `NS(=O)(=O)c1ccc(NC(NC(=O)c2ccco2)C(=O)c2ccc(Cl)cc2)cc1` (configuration not stated), the EC50 was > 20 µM (inactive).

`O=C(CN1C(=O)SC(=Cc2ccc(N3CCCCCC3)o2)C1=O)N1CCCCCC1`: the EC50 is > 20 µM (inactive).

`CC(C)OC(=O)C(C(=O)C(F)(F)F)c1cc(NS(=O)(=O)c2ccc(Cl)cc2)ccc1O` (configuration not stated): the EC50 is > 20 µM (inactive).

As for `COc1ccc(NC(=O)CN2C(=O)c3ccccc3NC23CCN(C)CC3)cn1`, the EC50 is > 20 µM (inactive).

Take `C[n+]1c2cc(N)ccc2cc2ccc(N)cc21`: the EC50 is under 0.039 µM.

Take `CCCCC(CC)CN=C(N)NC(N)=NCCCCCCN=C(N)NC(N)=NCC(CC)CCCC` (configuration not stated): the EC50 was > 20 µM (inactive).

Take `N#CC1C(=N)Oc2cc(O)ccc2C1c1ccc(Cl)cc1Cl` (configuration not stated): the EC50 is 11.9 µM.

For `CCN(CC)c1ccc2cc(C(N)=O)/c(=N\NC(N)=S)oc2c1`, the EC50 is under 0.039 µM.

`O=C(Cc1ccc2c(c1)CCC2)NCC1CCN(c2ccccc2)C1` (configuration not stated): the EC50 was > 20 µM (inactive).

Regarding `NC(=S)N/N=c1\oc2cc(O)ccc2cc1-c1nc2ccccc2[nH]1`, the EC50 is 0.155 µM.

As for `COCCn1c(C)cn2c3c(=O)n(Cc4ccc(Cl)cc4)c(=O)n(C)c3nc12`, the EC50 was > 20 µM (inactive).

Turning to `N#CC1C(=N)SC(=N)C(C#N)C1c1ccc(Cl)cc1Cl` (configuration not stated), the EC50 is 7.76 µM.

Turning to `O=C(O)CCn1c(O)c(C=C2C=Nc3ccccc32)sc1=S`, the EC50 was 12 µM.

As to `CNC[C@H](O)c1ccc(O)c(O)c1`, the EC50 is 0.039 µM.

With `COc1cc(/C=C(/C#N)c2nc3cc(Cl)ccc3s2)ccc1O`, the EC50 was > 20 µM (inactive).

In the case of `CN(Cc1ccccc1)C1=CC2=CC(=C(C#N)C#N)CCC2CC1` (configuration not stated), the EC50 was > 20 µM (inactive).

As for `CCN1/C(=C/C2=CC(=O)CC(C)(C)C2)Sc2ccccc21`, the EC50 was 3.9 µM.

For `CC(C)C(=O)Nc1sc2c(c1-c1nc3ccccc3s1)CCN(C(C)C)C2`, the EC50 is > 20 µM (inactive).

Turning to `COc1ccc(OC)c(CCNc2nc3cnc(-c4ccc(Cl)cc4)cc3n2C)c1`, the EC50 is > 20 µM (inactive).

Turning to `Cc1ccc(CN(Cc2ccc(F)cc2)C(=O)CNCCN2CCOCC2)s1`, the EC50 was > 20 µM (inactive).

Take `CC(C)C(C(=O)O)N1C(=O)/C(=C/c2ccc(O)cc2)SC1=S` (configuration not stated): the EC50 is 8.26 µM.

Consider `COc1cc(C=C(C#N)S(=O)(=O)c2cc(Cl)ccc2Cl)cc(Br)c1O`, for which the concentration giving a half-maximal response (EC50) was 6.43 µM.

`C(=Cc1ccccc1)C=NNc1ncnc2ccccc12`: the EC50 was > 20 µM (inactive).

With `CCCC(C(=O)O)N1C(=O)/C(=C/c2ccc(O)cc2)SC1=S` (configuration not stated), the 50% effective concentration (EC50) was 8.28 µM.

In the case of `CCOc1cc(/C=C2/Oc3cc(O)ccc3C2=O)cc(Cl)c1OCC(=O)N(C)C`, the EC50 is > 20 µM (inactive).

As for `CN1CCc2c(sc(NC(=O)Cc3ccccc3)c2-c2nc3ccccc3s2)C1`, the EC50 is > 20 µM (inactive).

For the molecule `CCc1nc(N=C(N)N)nc2cc(C)ccc12`, the EC50 is > 20 µM (inactive).

For `CC(C(=O)O)n1c(O)c(C=C2C=Nc3ccccc32)sc1=S` (configuration not stated), the EC50 is 6.92 µM.

`CN1C(=CC=C2C(=O)Oc3ccccc3C2=O)C(C)(C)c2ccccc21`: the concentration giving a half-maximal response (EC50) is 1.98 µM.

`CCOC(=O)C1CCN(C(=O)CC(c2cccc(C(F)(F)F)c2)c2c[nH]c3c(CC)cccc23)CC1` (configuration not stated): the EC50 was > 20 µM (inactive).

For `COc1ccc(OC)c(CCNc2nc3cnc(-c4ccc5c(c4)OCO5)cc3n2C)c1`, the EC50 is > 20 µM (inactive).

`O=C1NC(=S)SC1=Cc1cc(O)c(O)c(Cl)c1`: the EC50 was > 20 µM (inactive).

As to `CCN1C(=Cc2cc(C)[n+](CC3CCCO3)c(C)c2)Sc2ccccc21` (configuration not stated), the EC50 was > 20 µM (inactive).

As to `CCCc1[nH]n(-c2ccc(Cl)cc2)c(=O)c1/C=C1\NC(=O)N(Cc2ccc(C)cc2)C1=O`, the EC50 is > 20 µM (inactive).

On to `CC(C)C(C(=O)O)N1C(=O)/C(=C/c2ccc(N(C)C)cc2)SC1=S` (configuration not stated), for which the concentration giving a half-maximal response (EC50) is 12 µM.

For `COc1cccc(-n2c(O)c(C=Nc3cc(OC)ccc3OC)c3ccccc3c2=O)c1`, the EC50 was > 20 µM (inactive).

As for `O=C1NC(=O)C2=Cc3ccc(O)cc3OC2(O)N1` (configuration not stated), the EC50 was 0.247 µM.

Consider `O=c1oc2c(CN3CC4CC(C3)c3cccc(=O)n3C4)c(O)ccc2cc1-c1nc2ccccc2s1` (configuration not stated), for which the EC50 was 13.4 µM.

In the case of `CC1=CC(C)C(C(=O)O)C(C(=O)O)C1` (configuration not stated), the EC50 was > 20 µM (inactive).

Regarding `CC(C)(C)c1cnc(CSc2cnc(NC(=O)C3CCNCC3)s2)o1`, the EC50 is > 20 µM (inactive).

On to `COc1cc(/C=C2\SC(=S)N(C(CC(=O)O)C(=O)O)C2=O)ccc1O` (configuration not stated), for which the EC50 is 9.71 µM.

For the molecule `COc1cc(/C=C/c2nc3ccccc3o2)cc(Cl)c1O`, the EC50 is 1.7 µM.

For the molecule `O=C(O)CN1C(=O)/C(=C/c2cc(Br)c(O)c(Br)c2)SC1=S`, the EC50 is 0.289 µM.

In the case of `CC(=O)Nc1nc(COC(=O)c2[nH]c(C)c(C(=O)OC(C)C)c2C)cs1`, the EC50 is > 20 µM (inactive).

Take `COc1cc(OC)cc(C(=O)N2CCN(C(C(=O)Nc3ccc(NC(C)=O)cc3)C3CCCC3)CC2)c1` (configuration not stated): the EC50 was > 20 µM (inactive).

For the molecule `Nc1ccc2c3c(cccc13)C(=O)N(c1ccccc1)C2=O`, the EC50 was 0.415 µM.

With `Nc1c(S(=O)(=O)O)cc2c3c(cccc13)C(=O)N(CCO)C2=O`, the EC50 is 0.154 µM.

For `O[C@@H]1CN(Cc2ccncc2Cl)CC[C@H]1c1ccc2c(c1)OCO2`, the EC50 is > 20 µM (inactive).

For `O=C(O)CSc1ccc2c3c(cccc13)C(=O)c1ccccc1-2`, the EC50 is 0.294 µM.

On to `COC(=O)C(C)Sc1nc2sc3c(c2c(=O)n1C)CCC3` (configuration not stated), for which the EC50 was > 20 µM (inactive).

In the case of `CCN1CCc2c(sc(NC(=O)c3ccccc3)c2-c2nc3ccccc3s2)C1`, the EC50 was > 20 µM (inactive).

Consider `CC1(C)CC(=O)C2C(=Nc3[nH]c(=S)[nH]c(=O)c3C2c2ccc3c(c2)OCO3)C1` (configuration not stated), for which the EC50 is > 20 µM (inactive).

As to `O=C1C(=Cc2ccc(OC(F)F)cc2OC(F)F)Oc2cc(O)ccc21`, the EC50 is > 20 µM (inactive).

In the case of `CC[n+]1c(/C=C/C=C2/N(C)c3ccccc3C2(C)C)sc2ccccc21`, the EC50 is > 20 µM (inactive).

Regarding `CCCN1CCc2c(sc3c2c(NC(CC)CO)nc2nnnn23)C1` (configuration not stated), the EC50 is > 20 µM (inactive).

Regarding `CCCCN(C)C1=CC2=CC(=C(C#N)C#N)CCC2CC1` (configuration not stated), the EC50 is under 0.039 µM.

For the molecule `CCN(CC)Cc1c(O)cc(C)c2c1O/C(=C\c1cc3ccccc3o1)C2=O`, the EC50 was 9.1 µM.

As for `O=C1/C(=C/c2ccc3c(c2)OCO3)Oc2c1ccc1c2CN(CC2CCCO2)CO1` (configuration not stated), the EC50 was 8.39 µM.

For `CC1CN(c2ccc(/C=C(\C#N)c3nc4ccccc4[nH]3)o2)CC(C)O1` (configuration not stated), the EC50 is > 20 µM (inactive).

With `O=C(c1cnn(-c2ccccc2)n1)N1CCCC(COCc2ccccc2)C1` (configuration not stated), the EC50 is 0.513 µM.

For `CCCS(=O)(=O)N1CCN=C1SCc1ccccc1C`, the EC50 was > 20 µM (inactive).

As for `CCOC(=O)N1CCN(c2ccc(/C=C(\C#N)c3nc4ccccc4n3C)o2)CC1`, the EC50 is > 20 µM (inactive).

As for `N#CC(=Cc1c(F)c(F)c(F)c(F)c1F)c1ccccn1`, the EC50 was > 20 µM (inactive).

As to `O=C(CC1SC(=O)NC1=O)Oc1ccc(/C=C2\SC(=O)NC2=S)cc1` (configuration not stated), the EC50 was 7.71 µM.

As for `CNC(=O)NC(=O)CCN1CC(c2ccccc2Cl)c2c([nH]c3ccccc23)C1C` (configuration not stated), the EC50 is > 20 µM (inactive).

Consider `CCC(CO)[n+]1c(C)cc(C=C2Sc3ccccc3N2CC)cc1C` (configuration not stated), for which the EC50 was 1.86 µM.

Consider `COc1ccc(/C=C2\Oc3c(ccc4c3CN(C3CCS(=O)(=O)C3)CO4)C2=O)cc1` (configuration not stated), for which the EC50 is 8.35 µM.

In the case of `CCN1CC(=Cc2cc(C)n(C3CC3)c2C)C(=O)C(=Cc2cc(C)n(C3CC3)c2C)C1`, the EC50 was > 20 µM (inactive).

`CNC(=O)c1cnc(/C=C/c2csc(-c3ccsc3)n2)[nH]c1=O`: the EC50 is > 20 µM (inactive).

Consider `CN1C(=S)N(C2CCCCC2)C(=O)/C1=C\c1ccc2c(c1)OCO2`, for which the EC50 is > 20 µM (inactive).

For the molecule `CC(=O)NCCc1ccc(O)c(O)c1`, the EC50 was 0.0722 µM.

In the case of `COc1ccc(S(=O)(=O)NCC2CCCN(C(=O)CSc3ccccc3)C2)cc1` (configuration not stated), the EC50 was > 20 µM (inactive).

As for `COc1cc(C=C(C#N)S(=O)(=O)c2ccc(Cl)cc2)cc(Cl)c1O`, the EC50 is > 20 µM (inactive).

Take `c1ccc(CNc2nc(NCCc3ccncc3)c3sccc3n2)cc1`: the EC50 was 15.8 µM.

For the molecule `O=[N+]([O-])c1ccc(-n2nc3ccc4nonc4c3n2)cc1`, the EC50 is > 20 µM (inactive).

In the case of `CNCC(O)c1ccc(O)c(O)c1` (configuration not stated), the EC50 was 0.327 µM.

For the molecule `CCc1nn(C(C)C(=O)NC(C)CCc2ccco2)c(=O)c2cc3occc3n12` (configuration not stated), the EC50 was 0.743 µM.

`O=C1c2cccc3c(NCCO)ccc(c23)C(=O)N1CCO`: the EC50 is 0.0846 µM.

Regarding `CN1C(=S)N(CCCN2CCOCC2)C(=O)/C1=C/c1ccc(N(C)C)cc1`, the EC50 is > 20 µM (inactive).

For `CCCC[n+]1c(C)cc(C=C2Sc3ccccc3N2CC)cc1C`, the EC50 was 18.7 µM.

As to `FC(F)(F)c1ccc(-c2nc3ccc(Cl)cn3c2NCc2ccccc2)cc1`, the EC50 is > 20 µM (inactive).

Turning to `CNC[C@@H](O)c1ccc(O)c(O)c1`, the EC50 was under 0.039 µM.

Consider `Cc1cc(C)c2cc3c(cc2n1)CCN3CC(O)CO` (configuration not stated), for which the half-maximal effective concentration (EC50) is 2.78 µM.

For the molecule `N#CC(C#N)=Cc1ccc(O)c(O)c1`, the EC50 is > 20 µM (inactive).

As for `COc1cccc(/C=C2\Oc3c(ccc4c3CN(Cc3ccncc3)CO4)C2=O)c1`, the EC50 was 10.5 µM.

On to `CCOc1cc2c(cc1C=C(C#N)C#N)OC(C)C2` (configuration not stated), for which the EC50 was 14.7 µM.

Consider `CCN(CC)CC[n+]1c(C)cc(C=C2Sc3ccccc3N2C)cc1C`, for which the EC50 was > 20 µM (inactive).

The record behind these values is PubChem BioAssay AID1259426 (Fisher Drug Discovery Resource Center, 2018).
